Key:
[1] = biological target: T1, Protein deacetylase HDAC6 (Homo sapiens, UniProt Q9UBN7); test: Inhibition of HDAC6 (unknown origin)
T1 sequence (Q9UBN7 whole entry): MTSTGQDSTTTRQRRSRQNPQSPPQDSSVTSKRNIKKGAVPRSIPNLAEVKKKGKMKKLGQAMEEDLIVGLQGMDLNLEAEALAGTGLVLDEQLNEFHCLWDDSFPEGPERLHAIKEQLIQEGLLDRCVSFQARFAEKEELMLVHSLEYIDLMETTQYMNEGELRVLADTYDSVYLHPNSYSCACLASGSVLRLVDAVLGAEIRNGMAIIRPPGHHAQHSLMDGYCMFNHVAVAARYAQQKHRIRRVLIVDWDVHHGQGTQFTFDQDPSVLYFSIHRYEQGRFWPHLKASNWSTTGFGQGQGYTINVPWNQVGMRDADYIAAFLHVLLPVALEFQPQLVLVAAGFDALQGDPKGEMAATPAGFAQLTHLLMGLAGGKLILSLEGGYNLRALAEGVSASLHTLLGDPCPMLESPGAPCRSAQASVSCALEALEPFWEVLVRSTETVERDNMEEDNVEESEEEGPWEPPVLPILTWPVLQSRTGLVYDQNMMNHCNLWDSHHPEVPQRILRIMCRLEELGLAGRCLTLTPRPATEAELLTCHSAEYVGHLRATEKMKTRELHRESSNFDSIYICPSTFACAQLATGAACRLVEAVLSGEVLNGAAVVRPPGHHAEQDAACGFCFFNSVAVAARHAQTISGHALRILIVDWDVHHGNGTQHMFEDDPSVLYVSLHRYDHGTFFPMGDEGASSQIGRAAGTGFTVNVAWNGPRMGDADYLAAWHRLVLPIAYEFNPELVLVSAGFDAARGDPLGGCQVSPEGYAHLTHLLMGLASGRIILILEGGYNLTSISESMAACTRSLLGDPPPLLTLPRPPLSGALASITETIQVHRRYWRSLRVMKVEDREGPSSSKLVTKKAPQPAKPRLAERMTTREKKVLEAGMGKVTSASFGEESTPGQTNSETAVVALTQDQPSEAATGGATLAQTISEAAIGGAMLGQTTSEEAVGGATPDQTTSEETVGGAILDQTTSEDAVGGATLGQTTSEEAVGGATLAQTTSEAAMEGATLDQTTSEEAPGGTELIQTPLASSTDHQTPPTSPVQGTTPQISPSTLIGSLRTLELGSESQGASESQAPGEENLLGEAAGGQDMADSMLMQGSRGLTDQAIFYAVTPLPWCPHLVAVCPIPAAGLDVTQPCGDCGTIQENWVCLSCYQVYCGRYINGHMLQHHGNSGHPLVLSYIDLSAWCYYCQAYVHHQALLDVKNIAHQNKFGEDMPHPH

Histone deacetylase 3 = Histone deacetylase 3 (Homo sapiens, UniProt O15379); test: Inhibition of HDAC3 (unknown origin)
Histone deacetylase 3, sequence (O15379 whole entry): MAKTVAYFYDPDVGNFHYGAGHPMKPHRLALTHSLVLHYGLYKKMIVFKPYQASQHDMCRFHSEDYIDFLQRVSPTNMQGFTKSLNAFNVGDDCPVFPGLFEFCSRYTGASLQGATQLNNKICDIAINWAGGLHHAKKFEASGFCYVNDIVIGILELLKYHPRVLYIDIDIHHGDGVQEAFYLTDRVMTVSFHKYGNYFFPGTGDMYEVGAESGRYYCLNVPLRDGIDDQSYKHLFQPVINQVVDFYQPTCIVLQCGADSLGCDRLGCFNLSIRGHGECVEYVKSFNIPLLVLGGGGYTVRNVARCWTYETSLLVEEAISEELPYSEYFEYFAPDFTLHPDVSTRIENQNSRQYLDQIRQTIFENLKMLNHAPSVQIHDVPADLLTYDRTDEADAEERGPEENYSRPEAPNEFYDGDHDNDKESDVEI

IC50 [1]: 0.1 µM
IC50 (Histone deacetylase 3): 26 µM
SMILES: O=C(NO)c1ccc(CN2c3ccccc3[S+]([O-])C[C@H]3CCCC[C@H]32)cc1 (some centres not stated)
